Columns and labels:
[1] = system: root-knot nematodes (Meloidogyne spp.); experiment: Nematocidal activity on hatched root-knot nematodes in Petri dish; conditions: 15 nematodes; for Nematocidal efficiency (%): up to 3 days
Description: The tomato roots infected with root-knot nematodes were washed with running water and were then cut to a size of about 1 cm, after which 50 g of the cut roots were placed in a 500 ml round-bottom flask containing 200 ml of 0.5% sodium hypochloride (NaOCl), stopped with a rubber stopper, and shaken vigorously for 3 min to sterilize the roots and at the same time burst the egg bag. Thereafter, the solution was passed through a sieve in which 200 mesh was superimposed on 500 mesh, and washed with distilled water, so the eggs of the root-knot nematodes from which the NaOCl solution was removed were recovered.
Next, the eggs of the root-knot nematodes thus recovered were surface-sterilized with 0.5% NaOCl for 10 min, washed thoroughly with sterile distilled water, placed in a phosphate buffer (1%) containing sterilized normal saline, and hatched in an incubator at 25° C.
Thereafter, each mixed solution was diluted to 2000 ppm, 2 to 3 ml thereof was poured into a Petri dish, after which 15 hatched root-knot nematodes were placed in the Petri dish, and nematocidal activity was measured and the results thereof are shown in Table 1 below.
The number of root-knot nematodes used for the experiment on the number of killed root-knot nematodes was 15 at each dilution factor.

[2] = all the antioxidant assay systems; cited from earlier work
[3] = cited from earlier work
[4] = system: mosquitos and midge (Ae. aegypti, Culex species mosquitoes, Anopheles species mosquitoes); experiment: Mosquito and midge adult activity; format: in vivo; conditions: 500 to 8,000 ppm
mildew, and anthracnose = experiment: Fungicide activity of Geraniol oil; conditions: 500 to 4,000 ppm
black Sigatoka [5] = experiment: Black Sigatoka activity assessed in development of embodiments; conditions: in vivo
[6] = system: root-knot nematodes (Meloidogyne spp.); experiment: Nematocidal activity assessed in development of embodiments; format: in vivo
Text: Other embodiments may include the use of other monoterpene alcohols in place of geraniol. In some embodiments, a plant extract selected from the group consisting of a oxymatrine, neem extract, an Ostericum koreanum extract, Quillaja saponaria Molina and a clove extract may be added.

plant = experiment: Plant phytotoxicity noted in development assessments
tomato seedlings = experiment: Phytotoxicity of geraniol, drenching treatment of potted tomato seedlings; format: in vivo; conditions: for Phytotoxicity symptom / Extent of phytotoxicity (0-5): Tomato, 1 week after treatment; for Extent of phytotoxicity (0-5): 50 ml drench
Text: Sterilized soil was uniformly mixed, 300 g thereof was then placed in each pot, and tomato seedlings not infected with root-knot nematodes were transplanted thereto.

multiple insects = experiment: Insecticidal activity on multiple insects; format: in vivo; conditions: 500 to 6,000 ppm
Black Sigatoka [7] = experiment: Field trials against black Sigatoka in bananas; format: in vivo, Mycosphaerella fijiensis; conditions: applied as tank mixes with tea tree oil
Text: Fungicides are combined in mixtures mainly: to widen the spectrum of antifungal activity and to extend its duration; to exploit the synergistic interaction between the compounds, whereby the overall activity can be increased or the amounts used can be reduced without loss of activity; and to delay or reduce the emergence of resistant strains. […] Although in principle, combinations of synthetic antifungal compounds could be used to reduce the chemical load of any particular compound applied to crops, concerns about resistance development at lower doses have militated against their use as advised by the Fungicide Resistance Action Committee (FRAC).

[8] = 2000 ppm dilution, mixed 1:1 with emulsifier PLE9

## C/C=C(\C)C(=O)O[C@H]1C[C@@H](OC(C)=O)[C@@]2(C(=O)OC)CO[C@H]3[C@@H](O)[C@@](C)([C@]45O[C@@]4(C)[C@H]4C[C@@H]5O[C@@H]5OC=C[C@@]54O)[C@H]4[C@]1(CO[C@]4(O)C(=O)OC)[C@@H]32 [Azadirachtin, azadirachtin]
[1]; [8]
  number of killed root-knot nematodes, 1 day: 7
  number of killed root-knot nematodes, 2 days: 8
  number of killed root-knot nematodes, 3 days: 10
[1]; 2000 ppm dilution
  Nematocidal efficiency (%): 66.7%

## O=c1c(O)c(-c2ccccc2)oc2cc(O)cc(O)c12 [Galangin, galangin]
[2]
  antioxidant activity: comparable activity with that of AEP and EEP

## CC(C)=CCC/C(C)=C/CO [Geraniol, 3,7-dimethyl-2,6-octadien-1-ol]
[3]; most common organic solvents
  solubility in organic solvents: soluble in most common organic solvents
[3]; water
  solubility in water: insoluble in water
[4]
  mosquito and midge control: superior mosquito and midge control
mildew, and anthracnose
  fungicidal control: superior fungicidal control
Black Sigatoka [5]
  control of the black sigatoka fungus: also effective against the fungus
[6]; 500 to 4,000 ppm
  nematocidal control: superior nematocidal control
[6]; utilized alone
  nematocidal activity: superior nematocidal activity
plant; 500 to 4,000 ppm
  plant phytotoxicity: without plant phytotoxicity
plant; 500 to 8,000 ppm
  plant phytotoxicity or water toxicology: without plant phytotoxicity or water toxicology
plant; 4,500 ppm or more
  plant phytotoxicity: plant phytotoxicity was shown to occur
Tomato seedlings; 4000 ppm or more
  phytotoxicity symptoms in tomato seedlings: all tomato seedlings collapsed and withered
Tomato seedlings; Geraniol 100 ppm
  Phytotoxicity symptom: No
  Extent of phytotoxicity (0-5): 0
Tomato seedlings; Geraniol 200 ppm
  Phytotoxicity symptom: No
  Extent of phytotoxicity (0-5): 0
Tomato seedlings; Geraniol 330 ppm
  Phytotoxicity symptom: No
  Extent of phytotoxicity (0-5): 0
Tomato seedlings; Geraniol 500 ppm
  Phytotoxicity symptom: No
  Extent of phytotoxicity (0-5): 0
Tomato seedlings; Geraniol 1,000 ppm
  Phytotoxicity symptom: No
  Extent of phytotoxicity (0-5): 0
Tomato seedlings; Geraniol 2,000 ppm
  Phytotoxicity symptom: No
  Extent of phytotoxicity (0-5): 0
Tomato seedlings; Geraniol 3,000 ppm
  Phytotoxicity symptom: No
  Extent of phytotoxicity (0-5): 0
Tomato seedlings; Geraniol 4,000 ppm
  Phytotoxicity symptom: Withered
  Extent of phytotoxicity (0-5): 5
Tomato seedlings; Geraniol 5,000 ppm
  Phytotoxicity symptom: Withered
  Extent of phytotoxicity (0-5): 5
Tomato seedlings; Geraniol 10,000 ppm
  Phytotoxicity symptom: Withered
  Extent of phytotoxicity (0-5): 5
Tomato seedlings; Geraniol 20,000 ppm
  Phytotoxicity symptom: Withered
  Extent of phytotoxicity (0-5): 5
Tomato seedlings; concentration range of 100 ppm to 3,000 ppm
  phytotoxicity symptoms in tomato seedlings: no particular phytotoxicity symptoms
[1]; [8]
  number of killed root-knot nematodes, 1 day: 15ª
[1]; Geraniol 2,000 ppm
  number of killed root-knot nematodes, 1 day: 15

## O=C1CCC[C@@H]2[C@H]3CCC[N+]4([O-])CCC[C@@H](CN12)[C@@H]34 (stereo partly shown) [Oxymatrine, oxymatrine]
Multiple insects
  insecticidal control: superior insecticidal control
plant; 500 to 6,000 ppm
  plant phytotoxicity: without plant phytotoxicity
[1]; [8]
  number of killed root-knot nematodes, 1 day: 7
  number of killed root-knot nematodes, 2 days: 9
  number of killed root-knot nematodes, 3 days: 10

## CC1COC(Cn2cncn2)(c2ccc(Oc3ccc(Cl)cc3)cc2Cl)O1 (stereo not shown) [difenoconazole]
Black Sigatoka [7]
  control of Black Sigatoka: effectively controlled Black Sigatoka

## CON=C(C(=O)OC)c1ccccc1CON=C(C)c1cccc(C(F)(F)F)c1 [trifloxystrobin]
Black Sigatoka [7]
  control of Black Sigatoka: effectively controlled Black Sigatoka

## pyrethrin
[1]; [8]
  number of killed root-knot nematodes, 1 day: 5
  number of killed root-knot nematodes, 2 days: 6
  number of killed root-knot nematodes, 3 days: 11
[1]; 2000 ppm dilution
  Nematocidal efficiency (%): 73.3%

— patent US20250098671A1, “CHITOSAN ENCAPSULATION OF OXYMATRINE AND TEA SAPONIN FOR USE IN PESTICIDAL ACTIVITY” (priority 2023, published 2025)
